Among the data in patent US7989634B2, “Melanocortin receptor agonists” (LG Life Sciences Ltd., priority 2003, dated 2011) are EC50 and IC50 values, retold here.

For experiment [1], the target named is T1, human melanocortin receptor 4 (MC4R) (Homo sapiens, UniProt P32245).
T1 construct: expressed in transfected cells
The experiment can be described thus: Luciferase functional assay. The class given is cell-based. The conditions noted are these: agonistic efficacy against MCR4; functional assay not specified (luciferase or cAMP). The method, then: Cell lines expressing human melanocortin receptor 4 (MC4R) were dissociated from tissue culture dishes by rinsing with Ca^++, Mg^++ free DPBS, treated with 1× Trypsin/EDTA solution for 1 min at 37° C., and resuspended with DMEM (GIBCO-BRL) supplemented with 10% FBS. The cells were counted and diluted with DMEM supplemented with 10% FBS and 200 ug/ml of Geneticin to 5×10^5 cells/ml. 90 ul of cell suspension was plated onto each well of 96-well black and clear bottom culture plates (Costar). After the incubation for 24 h in the atmosphere of 6% CO2 at 37° C., 10 ul of NDP- -MSH and test compounds diluted in DMSO were added to each well. The final DMSO concentration was 1%. After 4 h of incubation in the atmosphere of 6% CO2 at 37° C., 50 ul of Bright-Glo (Promega) was added to each well. Luciferase activity was measured by using L-Max luminometer (Molecular Device). The amount of luciferase activity induced by treatment with NDP- -MSH was defined as 100% to obtain the relative efficacy of test compounds. The EC0.5 MSH was defined as the concentration of test compounds that results in half maximal activity of NDP- -MSH. The EC50 was defined as the concentration of test compound that results in half maximal activity of its own.

Experiment [2] concerns the target T1, human melanocortin receptor 4 (MC4R). The experiment can be described thus: Membrane fraction binding assay (125I-NDP-MSH competition). The conditions noted are these: binding affinity against MCR4. How it is done: The membrane fraction binding assay was used to identify competitive inhibitors of ^125I-NDP- -MSH binding to cloned human MCRs expressed in HEK cells.
Cell lines expressing human melanocortin receptor 4 (MC4R) were grown in Φ150 mm culture dishes in DMEM (GIBCO-BRL) supplemented with 10% FBS, 200 ug/ml Geneticin (GIBCO-BRL), and antibiotics (penicillin and streptomycin) (GIBCO-BRL) in an atmosphere of 6% CO2 at 37° C. When the cells were fully grown, the cells were washed once with 10 ml of Ca^++, Mg^++ free DPBS. The cells were incubated with 8 ml of Ca^++, Mg^++ free DPBS for 15-30 min at 37° C. until the cells were easily detached by triturating with pipette. The cells were harvested into 50 ml of conical tubes, and spun at 1500 rpm for 5 min. The supernatant was discarded, and the cells were resuspended in 8 ml of Ca^++, Mg^++ free DPBS, and spun at 1500 rpm for 5 min. The supernatant was discarded, and pellets were resuspended in 3 ml of membrane preparation buffer (50 mM Tris, pH 7.2˜7.4, 4 ug/ml Leupeptin; 10 uM Phosphoramidon; 40 ug/ml Bacitracin; 5 ug/ml Aprotinin; 10 mM Pefabloc). The pellets were homogenized with dounce homogenizer (Bellco with type “B” glass pestle) using 10-12 strokes. The homogenate was centrifuged (Beckman XL-100K Ultracentrifuge, Rotor 45 Ti, 50 ml centrifuge tube) at 40,000 rpm (100,000×g) for 30 min at 4° C. The pellets were resuspended in 20 ml of membrane preparation buffer, and protein was determined by BCA assay kit (PIERCE). Aliquots were placed in tubes and stored at −80° C.
Membrane fraction was diluted with membrane binding buffer to make final 600 ug/ml, and 50 ul of membrane fraction containing 30 ug of membrane protein was added onto each well of 96-well assay plate. 25 ul of test compounds or 20 uM unlabelled NDP- -MSH (to make the final concentration at 5 uM) diluted with membrane binding buffer was added onto each well of 96-well assay plate. […] The top was sealed, and the radioactivity was quantitated in a Packard Topcount Microplate Scintillation Counter. […]

The term EC50 denotes the concentration at which the effect is half-maximal. A high value points to weaker potency. By IC50 is commonly meant the concentration at which inhibition is half-maximal.

T1 sequence (P32245 whole entry): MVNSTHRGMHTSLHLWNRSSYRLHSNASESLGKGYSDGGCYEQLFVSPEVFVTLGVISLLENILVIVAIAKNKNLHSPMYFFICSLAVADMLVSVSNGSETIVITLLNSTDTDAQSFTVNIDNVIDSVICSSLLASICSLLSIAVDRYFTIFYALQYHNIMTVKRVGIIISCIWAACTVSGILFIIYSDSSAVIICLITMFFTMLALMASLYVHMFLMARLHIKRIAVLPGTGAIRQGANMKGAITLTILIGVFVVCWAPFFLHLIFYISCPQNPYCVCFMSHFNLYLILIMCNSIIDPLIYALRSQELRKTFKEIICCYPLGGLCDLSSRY

On to `CC(C)C(=O)N(C1CCCCC1)[C@H]1CCN(C(=O)[C@@H](Cc2ccc(Cl)cc2)NC(=O)[C@H]2CCCN2)C1` [Example 2], for which, in experiment [1], the EC50 lay within 0.005 to 0.5 µM. The same compound showed an IC50 in experiment [2] of 0.1 to 0.5 µM.

Take `CC(C)C(=O)N(C1CCCCC1)[C@H]1CCN(NC(=O)[C@@H](Cc2ccc(Cl)cc2)NC[C@H]2CCCN2)C1` [Example 3, (2R)-2-{[(2R)-pyrrolidine-2-yl]methyl}amino-N-{(3S)-3-[cyclohexyl(isobutyryl)amino]pyrrolidine-1-yl}-3-(4-chlorophenyl)propionamide 2TFA]: the EC50 in experiment [1] was 0.005 to 0.5 µM. In experiment [2], the IC50 was in the range of 0.1 to 0.5 µM.

For the compound `CC(C)C(=O)N(C1CCCCC1)[C@H]1CCN(C(=O)[C@H](N)Cc2ccc(Cl)cc2)C1` [Example 1], the EC50 in experiment [1] lay in the range of 0.005 to 0.5 µM. Besides, the IC50 in experiment [2] is 0.1 to 0.5 µM.
